pIC50: −log10 of the molar value.
Tests used:
Assay type in all cases: biochemical
[1] = target: CDK2 enzyme, complexed with cyclin A (Homo sapiens, UniProt P24941); experiment: CDK2 cyclin dependent kinase assay, phosphorylation of synthetic peptide […] (33P-ATP filtration); conditions: Table 2; 0.1 mM ATP
Experimental: (§1) The assay mixture containing the inhibitor and CDK2 enzyme, complexed with cyclin A (0.4 U/ml) was mixed together in a microtiter plate in a final volume of 50 μl and incubated for 40 min at 30° C. The assay mixture contained 0.1 mM unlabeled ATP, 0.01 μCi/μl ^33P-γ-ATP, 0.03 mM peptide, 0.1 mg/ml BSA, 7.5 mM magnesium acetate, 50 mM HEPES-NaOH, pH 7.5. The reaction was stopped by adding 50 μl of 50 mM phosphoric acid. 90 μl of the mixture were transferred to a pre-wetted 96-well Multiscreen MAPHNOB filtration plate (Millipore) and filtered on a vacuum manifold. The filter plate was washed with three successive additions of 200 μl 50 mM phosphoric acid and then with 100 μl methanol. The filtration plate was dried for 10 min at 65° C., scintillant added and phosphorylated peptide quantified in a scintillation counter (Trilux, PerkinElmer).
HEPES is N-[2-hydroxyethyl]piperazine-N′-[2-ethanesulfonic acid]. BSA is bovine serum albumin.

[2] = target: T1, PDK1 enzyme (Homo sapiens, UniProt O15530); experiment: PDK1 3'-phosphoinositide-dependent kinase assay, phosphorylation of synthetic peptide (33P-ATP filtration); conditions: Table 2; 0.01 mM ATP; read-out: PDK1 IC50
T1 sequence (O15530 1-556): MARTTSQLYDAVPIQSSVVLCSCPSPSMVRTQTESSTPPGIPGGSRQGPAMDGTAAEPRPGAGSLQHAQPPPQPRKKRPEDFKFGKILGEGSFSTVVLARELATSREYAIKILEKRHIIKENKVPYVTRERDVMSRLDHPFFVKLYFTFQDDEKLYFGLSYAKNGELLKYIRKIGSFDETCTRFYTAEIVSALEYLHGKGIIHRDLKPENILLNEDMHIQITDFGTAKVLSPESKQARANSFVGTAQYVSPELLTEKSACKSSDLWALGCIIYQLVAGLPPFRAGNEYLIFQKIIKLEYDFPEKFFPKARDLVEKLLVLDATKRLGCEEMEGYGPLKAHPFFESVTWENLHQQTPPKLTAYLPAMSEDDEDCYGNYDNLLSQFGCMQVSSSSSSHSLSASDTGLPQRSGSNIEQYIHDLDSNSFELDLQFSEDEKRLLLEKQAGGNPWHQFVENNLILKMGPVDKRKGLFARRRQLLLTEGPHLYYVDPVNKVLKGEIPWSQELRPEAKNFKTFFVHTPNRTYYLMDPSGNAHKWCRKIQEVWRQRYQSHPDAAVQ
Experimental: as §1, with “and PDK1 enzyme” for “and CDK2 enzyme, complexed with cyclin A (0.4 U/ml)”, “for 60” for “for 40”, “contained 0.01” for “contained 0.1”, “^33P-γ-ATP, 0.075” for “^33P-γ-ATP, 0.03”, “acetate, 0.05 M Tris.HCl,” for “acetate, 50 mM HEPES-NaOH,”, “pH 7.5, 0.5% 2-mercaptoethanol.” for “pH 7.5.”

[3] = target: T2, Chk1 (Homo sapiens, UniProt O14757); experiment: Chk1 kinase assay, phosphorylation of Chktide (33P-ATP filtration); conditions: Table 2; 0.01 mM ATP; read-out: Chk1 IC50
T2 sequence (O14757 1-476): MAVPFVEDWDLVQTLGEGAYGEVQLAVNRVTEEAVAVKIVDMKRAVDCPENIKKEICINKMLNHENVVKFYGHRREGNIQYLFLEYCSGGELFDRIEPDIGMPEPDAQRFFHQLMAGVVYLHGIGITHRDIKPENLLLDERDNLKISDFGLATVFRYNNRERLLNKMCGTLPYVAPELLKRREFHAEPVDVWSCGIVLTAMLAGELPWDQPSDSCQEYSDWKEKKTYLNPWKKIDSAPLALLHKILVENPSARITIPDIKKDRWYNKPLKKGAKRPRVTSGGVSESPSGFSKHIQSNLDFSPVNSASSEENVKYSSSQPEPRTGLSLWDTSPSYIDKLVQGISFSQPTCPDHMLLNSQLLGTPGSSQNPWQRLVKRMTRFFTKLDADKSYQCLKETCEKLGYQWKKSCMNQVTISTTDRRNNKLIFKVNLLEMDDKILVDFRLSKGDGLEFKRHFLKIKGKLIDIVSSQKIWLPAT
Experimental: Assays for the Chk1 kinase activity were carried out by monitoring the phosphorylation of a synthetic peptide Chktide with the amino acid sequence, […]. The assay mixture containing the inhibitor and Chk1 enzyme was mixed together in a microtiter plate in a final volume of 50 μl and incubated for 40 minutes at 30° C.
The assay mixture contained 0.01 mM unlabeled ATP, 0.5 μCi ^33P-γ-ATP, 30 μM Chktide, 0.1 mg/ml BSA, 50 mM Hepes-NaOH pH 7.5 and 11 nM GST-Chk1 enzyme. The reaction was stopped by adding 50 μl of 50 mM phosphoric acid. 90 μl of the mixture was transferred to a pre-wetted 96-well Multiscreen MAPHNOB filtration plate (Millipore) and filtered on a vacuum manifold. The filter plate was washed with three successive additions of 200 μl 50 mM phosphoric acid and then with 100 μl methanol. The filtration plate was dried for 10 min at 65° C., scintillant added and phosphorylated peptide quantified in a scintillation counter (Trilux, PerkinElmer).

Row | pIC50 [1] | pIC50 [2] | pIC50 [3] | Structure (SMILES)
1 | 3.81 | < 3.70 | < 3.70 | O=S(=O)(c1ccc(Nc2cc(Cl)nc3ncnn23)cc1)C(F)(F)F [Example 64]
2 | 6.03 | < 3.70 | < 3.70 | CCN(CC)c1cc(Nc2ccc(S(C)(=O)=O)cc2)n2ncnc2n1 [Example 65]
3 | 5.38 | < 3.70 | < 3.70 | CNc1cc(Nc2ccc(S(N)(=O)=O)cc2)n2ncnc2n1 [Example 66]
4 | 5.64 | < 3.70 | < 3.70 | NS(=O)(=O)c1ccc(Nc2cc(N3CCCC(O)C3)nc3ncnn23)cc1 (stereo not drawn) [Example 67]
5 | 5.13 | < 3.70 | < 3.70 | NS(=O)(=O)c1ccc(Nc2cc(N[C@H]3CC[C@H](O)CC3)nc3ncnn23)cc1 [Example 68]
6 | 5.74 | < 3.70 | < 3.70 | CC[C@H](CO)Nc1cc(Nc2ccc(S(C)(=O)=O)cc2)n2ncnc2n1 [Example 69]
7 | 5.57 | < 3.70 | < 3.70 | CCN(CC)c1cc(Nc2ccc(S(=O)(=O)C(F)(F)F)cc2)n2ncnc2n1 [Example 70]
8 | 6.23 | < 3.70 | < 3.70 | CCN(CC)c1cc(Nc2ccc(S(=O)(=O)N(C)C)cc2)n2ncnc2n1 [Example 71]
9 | 6.42 | < 3.70 | < 3.70 | CCN(CC)c1cc(Nc2ccc(S(=O)(=O)N3CCC(O)CC3)cc2)n2ncnc2n1 [Example 72]
10 | 4.65 | < 3.70 | < 3.70 | CN(C)CCN(C)c1cc(Nc2ccc(S(C)(=O)=O)cc2)n2ncnc2n1 [Example 73]
11 | 4.85 | < 3.70 | < 3.70 | CCCc1cc(Nc2ccc(S(C)(=O)=O)cc2)n2ncnc2n1 [Example 74]
12 | 4.20 | < 3.70 | < 3.70 | Clc1cc(Nc2ccccc2)n2ncnc2n1 [Example 75]
13 | < 3.70 | < 3.70 | < 3.70 | CC(C)(C)OC(=O)N1CCC(CNc2cc(Cl)nc3ncnn23)CC1 [Example 76]
14 | 3.90 | < 3.70 | < 3.70 | Cc1cc(Nc2ccc(S(C)(=O)=O)cc2)n2ncnc2n1 [Example 77]
15 | 5.13 | < 3.70 | < 3.70 | CC(C)c1cc(Nc2ccc(S(C)(=O)=O)cc2)n2ncnc2n1 [Example 78]
16 | 5.30 | < 3.70 | < 3.70 | CC[C@H](CO)Nc1cc(NCc2ccccc2)n2ncnc2n1 [Example 79]
17 | 4.87 | < 3.70 | < 3.70 | CCNc1cc(Nc2ccc(S(C)(=O)=O)cc2)n2ncnc2n1 [Example 80]
18 | 3.75 | < 3.70 | < 3.70 | Clc1cc(NCC2CCNCC2)n2ncnc2n1 [Example 81]
19 | 5.33 | < 3.70 | < 3.70 | CCN(CC)c1cc(Nc2ccccc2)n2ncnc2n1 [Example 82]
20 | 6.57 | 4.36 | 4.03 | CN(C)S(=O)(=O)c1ccc(Nc2cc(N[C@H]3CC[C@H](N)CC3)nc3ncnn23)cc1 [Example 83]

Row | pIC50 [1] | pIC50 [2] | pIC50 [3] | Structure (SMILES)
21 | 6.60 | 3.97 | < 3.70 | CS(=O)(=O)c1ccc(Nc2cc(N[C@H]3CC[C@H](N)CC3)nc3ncnn23)cc1 [Example 84]
22 | 6.07 | 5.54 | < 3.70 | CCN(c1cc(Nc2ccc(S(C)(=O)=O)cc2)n2ncnc2n1)C(C)C [Example 85]
23 | 5.83 | < 3.70 | < 3.70 | CC(C)N(CCO)c1cc(Nc2ccc(S(C)(=O)=O)cc2)n2ncnc2n1 [Example 87]
24 | 5.22 | < 3.70 | 4.92 | O=S(=O)(c1ccccc1)c1ccc(Nc2cc(Cl)nc3ncnn23)cc1 [Example 88]
25 | 4.44 | < 3.70 | < 3.70 | CS(=O)(=O)c1ccc(Nc2cc(N3CCC(C(N)=O)CC3)nc3ncnn23)cc1 [Example 89]
26 | 3.99 | < 3.70 | < 3.70 | COc1cc(Nc2cc(Cl)nc3ncnn23)c(Cl)cc1C(=O)O [Example 90]
27 | 5.32 | < 3.70 | 4.85 | CN(C)c1ccc(Nc2cc(Nc3ccc(S(C)(=O)=O)cc3)n3ncnc3n2)cc1 [Example 91]
28 | 5.83 | < 3.70 | < 3.70 | CCN(CC)c1cc(Nc2ccc(C(N)=O)cc2)n2ncnc2n1 [Example 92]
29 | 6.17 | < 3.70 | < 3.70 | CCN(CC)c1cc(Nc2ccc(S(=O)(=O)c3ccccc3)cc2)n2ncnc2n1 [Example 93]
30 | 5.82 | < 3.70 | < 3.70 | CC(C)(C)CNc1cc(Nc2ccc(S(C)(=O)=O)cc2)n2ncnc2n1 [Example 94]
31 | 4.12 | < 3.70 | < 3.70 | CS(=O)(=O)c1ccc(CNc2cc(Cl)nc3ncnn23)cc1 [Example 95]
32 | 5.65 | < 3.70 | < 3.70 | CS(=O)(=O)c1ccc(Nc2cc(NC3CCCC3)nc3ncnn23)cc1 [Example 96]
33 | 4.69 | < 3.70 | < 3.70 | CS(=O)(=O)c1ccc(Nc2cc(N)nc3ncnn23)cc1 [Example 97]
34 | 6.59 | 4.85 | 5.66 | N[C@H]1CC[C@H](Nc2cc(Nc3ccc(S(=O)(=O)c4ccccc4)cc3)n3ncnc3n2)CC1 [Example 98]
35 | 4.59 | < 3.70 | < 3.70 | CS(=O)(=O)c1ccc(Nc2cc(NCC34CC5CC(CC(C5)C3)C4)nc3ncnn23)cc1 [Example 99]
36 | 5.53 | < 3.70 | < 3.70 | CS(=O)(=O)c1ccc(CNc2cc(N[C@H]3CC[C@H](N)CC3)nc3ncnn23)cc1 [Example 100]
37 | 4.82 | < 3.70 | < 3.70 | CS(=O)(=O)c1ccc(Nc2cc(NC3CC3)nc3ncnn23)cc1 [Example 101]
38 | 4.96 | 5.45 | 4.23 | CS(=O)(=O)c1ccc(Nc2cc(NC3C4CC5CC(C4)CC3C5)nc3ncnn23)cc1 (stereo not drawn) [Example 102]
39 | 4.53 | < 3.70 | < 3.70 | CCN(CC)c1cc(NCc2ccc(S(C)(=O)=O)cc2)n2ncnc2n1 [Example 103]

— patent US20070275961A1, “Triazolo ' 1, 5-A ! Pyrimidines and Their Use in Medicine” (VERNALIS (CAMBRIDGE) LIMITED., priority 2003, published 2007)
